Assay results reported in PMC9767854, “Discovery and mechanism studies of a novel ATG4B inhibitor Ebselen by drug repurposing and its anti-colorectal cancer effects in mice” (Cell & Bioscience, 2022).

Key:
[1] = biological target: T1, ATG4B (Homo sapiens, UniProt Q9Y4P1); assay: In vitro thermal shift assay, ATG4B WT; type: binding; settings: ATG4B 100 nM, Ebselen 1 μM, compared with DMSO
T1 construct: 6xHis; made in house; host or cells: E. coli BL21(DE3)
T1 sequence (Q9Y4P1 1-393): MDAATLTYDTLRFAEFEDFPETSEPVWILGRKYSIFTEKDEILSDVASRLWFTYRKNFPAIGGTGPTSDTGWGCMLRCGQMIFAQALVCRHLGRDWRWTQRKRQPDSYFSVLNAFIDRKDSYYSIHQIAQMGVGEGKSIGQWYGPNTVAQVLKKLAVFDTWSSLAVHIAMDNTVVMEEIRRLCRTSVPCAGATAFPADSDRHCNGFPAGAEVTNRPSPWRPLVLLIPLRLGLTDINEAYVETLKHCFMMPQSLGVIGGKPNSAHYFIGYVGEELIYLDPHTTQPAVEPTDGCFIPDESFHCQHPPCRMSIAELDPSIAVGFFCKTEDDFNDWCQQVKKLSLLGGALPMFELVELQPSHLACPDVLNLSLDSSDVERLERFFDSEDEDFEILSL
Experimental: (§1) For in vitro thermal shift assay, recombinant protein ATG4B or C74S mutant (100 nM) was incubated with Ebselen (1 μM) (DMSO as control) in the PCR tubes. The PCR instrument program was set at 25 °C for 10 min, 37 °C to 70 °C for 30 min and followed by cooling tubes for 5 min at room temperature. Then centrifuged at 12,000 rpm for 10 min at 4 °C, soluble fractions were separated from precipitates to be analyzed by SDS-PAGE and immunoblotting.

[2] = biological target: T2, ATG4B C74S mutant (Homo sapiens, UniProt Q9Y4P1, C74S); assay: In vitro thermal shift assay, ATG4B C74S mutant; type: binding; settings: C74S mutant 100 nM, Ebselen 1 μM, compared with DMSO
T2 construct: 6xHis; made in house; host or cells: E. coli BL21(DE3)
Experimental: as §1

[3] = system: SW620 cell-based xenografts; assay: SW620 subcutaneous xenograft tumor model; type: in vivo, BALB/c-nu/nu mice
Experimental: Fig. 7 Ebselen suppresses colorectal cancer tumor growth. A A brief diagram of the animal experiment for subcutaneous xenografted tumor model. 2 × 10^6 (2e^6) SW620 cells were xenografted into BALB/c-nu/nu mice by subcutaneous injection (s.c.). After 10 days, mice were injected intraperitoneally (i.p.) with indicated doses of Ebselen every two days, and monitoring of tumor volume and body weight changes were performed. B–D Representative tumor images and tumor weight at the end time point were captured from SW620 cell-based xenografts. Mean tumor weight ± SEM (C) and mean tumor volume ± SEM (D) were shown. E The inhibitory effect of ATG4 in xenografted tumors was detected by FRET assay. F, I The protein level of autophagy and apoptosis in xenografted tumors were detected by western blot. Representative results were shown and the statistical results of each group were obtained from seven mice. J, K The immunohistochemistry analysis of Ki67 in xenografted tumors (group vehicle and Ebselen 10 mg/kg). Bar = 20 μm. […]
Four- to six-weeks-old BALB/C nu/nu female mice purchased from the Experimental Animal Center of Sun Yat-Sen University, were approved by the Animal Ethics Committee at Sun Yat-sen University and kept in specific-pathogen-free environment. […] Tumor volume was measured by calipers and calculated using the equation: 0.5 × length × width^2. […]

[4] = system: xenografted tumors; assay: Autophagy, apoptosis and Ki67 markers in xenografted tumors; type: in vivo, BALB/c-nu/nu mice
Experimental: Fig. 7 Ebselen suppresses colorectal cancer tumor growth. A A brief diagram of the animal experiment for subcutaneous xenografted tumor model. 2 × 10^6 (2e^6) SW620 cells were xenografted into BALB/c-nu/nu mice by subcutaneous injection (s.c.). After 10 days, mice were injected intraperitoneally (i.p.) with indicated doses of Ebselen every two days, and monitoring of tumor volume and body weight changes were performed. B–D Representative tumor images and tumor weight at the end time point were captured from SW620 cell-based xenografts. Mean tumor weight ± SEM (C) and mean tumor volume ± SEM (D) were shown. E The inhibitory effect of ATG4 in xenografted tumors was detected by FRET assay. F, I The protein level of autophagy and apoptosis in xenografted tumors were detected by western blot. Representative results were shown and the statistical results of each group were obtained from seven mice. J, K The immunohistochemistry analysis of Ki67 in xenografted tumors (group vehicle and Ebselen 10 mg/kg). Bar = 20 μm. The positive Ki67 area rate was obtained from the ratio of positive Ki67 area to total cell area by Image J
Four- to six-weeks-old BALB/C nu/nu female mice purchased from the Experimental Animal Center of Sun Yat-Sen University, were approved by the Animal Ethics Committee at Sun Yat-sen University and kept in specific-pathogen-free environment. Approximately 2 × 10^6 SW620 cells or 1 × 10^7 HCT116 cells were injected subcutaneously into the dorsal flank on the right side of the mice. Different groups were divided randomly when the tumor volume was approximately 60–80 mm^3, before drug administration intraperitoneally (i.p.). Tumor volume was measured by calipers and calculated using the equation: 0.5 × length × width^2. At the end of the experiments, the mice were sacrificed and tumors were dissected and weighed. In particular, we employed Servicebio (Wuhan, China) to carry out H&E staining and immunohistochemistry assay.

T2 sequence (Q9Y4P1 whole entry C74S): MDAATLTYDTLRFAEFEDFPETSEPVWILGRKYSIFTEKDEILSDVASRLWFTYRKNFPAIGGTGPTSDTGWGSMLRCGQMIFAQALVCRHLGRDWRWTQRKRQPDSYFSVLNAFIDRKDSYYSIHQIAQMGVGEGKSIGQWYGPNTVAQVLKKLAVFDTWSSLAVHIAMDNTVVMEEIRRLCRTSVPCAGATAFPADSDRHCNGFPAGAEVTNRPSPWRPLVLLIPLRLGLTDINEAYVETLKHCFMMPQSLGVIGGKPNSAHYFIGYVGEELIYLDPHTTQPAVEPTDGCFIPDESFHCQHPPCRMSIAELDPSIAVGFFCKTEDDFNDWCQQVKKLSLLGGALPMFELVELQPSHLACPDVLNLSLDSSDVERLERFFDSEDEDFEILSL

Structure (SMILES): O=c1c2ccccc2[se]n1-c1ccccc1 [Ebselen]
- thermal stability of wild type ATG4B [1]: strikingly improved
- thermal stability of C74S mutant [2]: still a little increased
- anti-tumor effect ([3]; 5 mg/kg i.p. every two days): obvious anti-tumor effect
- growth of tumors ([3]; 5, 10, 20 mg/kg i.p. every two days, compared with vehicle): significantly suppress the growth of tumors
- Ki67 positivity in tumors ([4]; Ebselen 10 mg/kg, immunohistochemistry): significant reduction of Ki67 positivity
- autophagy flux in tumors (LC3-II, p62) ([4]; compared with the vehicle group): significantly inhibited
- apoptosis of tumors ([4]; western blot): inhibited the apoptosis of tumors in a dose-dependent manner
